Measurements taken from patent publication US6127382A, “Amines substituted with a tetrahydroquinolinyl group an aryl or heteroaryl group and an alkyl group, having retinoid-like biological activity” (Allergan Sales, Inc., priority 1999, dated 2000).

Molecular target: T1, RARβ (Homo sapiens, UniProt P10826)
T1 sequence (P10826 1-448 isoform P10826-2): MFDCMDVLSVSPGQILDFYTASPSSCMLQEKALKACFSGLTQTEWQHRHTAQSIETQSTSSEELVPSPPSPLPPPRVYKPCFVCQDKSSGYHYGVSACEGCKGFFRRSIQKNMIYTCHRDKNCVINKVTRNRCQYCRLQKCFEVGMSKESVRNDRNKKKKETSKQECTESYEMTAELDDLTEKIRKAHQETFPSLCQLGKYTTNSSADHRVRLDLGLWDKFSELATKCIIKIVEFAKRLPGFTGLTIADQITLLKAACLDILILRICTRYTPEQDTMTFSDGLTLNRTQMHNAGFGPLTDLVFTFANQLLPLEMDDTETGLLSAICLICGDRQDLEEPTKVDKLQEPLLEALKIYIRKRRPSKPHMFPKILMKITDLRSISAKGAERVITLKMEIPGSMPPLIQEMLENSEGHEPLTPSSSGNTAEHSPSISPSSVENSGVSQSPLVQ
Experiment: ligand binding assay, RARβ
Details: read-out: RAR Bind Ki β
Text: Other assays described below, measure the ability of the compounds of the present invention to bind to, and/or activate various retinoid receptor subtypes. When in these assays a compound binds to a given receptor subtype and activates the transcription of a reporter gene through that subtype, then the compound is considered an agonist of that receptor subtype. […] In the below described assays the ability of the compounds to bind to RARα, RARβ, RARγ, RXRα, RXRβ and RXRγ receptors, and the ability or inability of the compounds to activate transcription of a reporter gene through these receptor subtypes can be tested. […] However, some of the compounds of the invention may behave as retinoid antagonists or partial antagonists and/or as inverse agonists. Because of the complex distribution of the different retinoid receptors in various organs of the mammalian body partial agonists and partial antagonists and compounds which have the characteristics of both may lend themselves to particularly useful therapeutic applications and may avoid serious side effects of conventional retinoid drugs.
A holoreceptor transactivation assay and a ligand binding assay which measure the antagonist/agonist like activity of the compounds of the invention, or their ability to bind to the several retinoid receptor subtypes, respectively, are described in published PCT Application No. WO WO93/11755 (particularly on pages 30-33 and 37-41) published on Jun. 24, 1993, the specification of which is also incorporated herein by reference. A detailed experimental procedure for holoreceptor transactivations has been described by Heyman et al. Cell 68, 397-406, (1992); Allegretto et al. J. Biol. Chem. 268, 26625-26633, and Mangelsdorf et al. The Retinoids: Biology, Chemistry and Medicine, pp 319-349, Raven Press Ltd., New York, which are expressly incorporated herein by reference. The results obtained in this assay are expressed in EC50 numbers, as they are also in the chimeric receptor transactivation assay. The results of ligand binding assay are expressed in Kd numbers. (See Cheng et al. Biochemical Pharmacology Vol. 22 pp 3099-3108, expressly incorporated herein by reference.)
Table 1 discloses the activity of certain exemplary compounds of the invention in the above-described chimeric receptor transactivation assay, holoreceptor transactivation assay and a ligand binding assays. Particularly, the transactivation data pertaining to RAR receptors were obtained in the chimeric assay, and the data pertaining to transactivation of RXR receptors were obtained in the holoreceptor transactivation assay.

Row | Compound | Ki [µM]
1 | CCN(c1ccc(C(=O)O)cc1)c1ccc2c(c1)C(C)(C)CC(=O)N2C(C)C [Compound 6, 4-[(1-Isopropyl-4,4-dimethyl-2-oxo-1,2,3,4-tetrahydroquinolin-6-yl)ethylamino]benzoic Acid] | > 30
2 | CC(C)N1CCC(C)(C)c2cc(N(C)c3ccc(C(=O)O)cc3)ccc21 [Compound 10, 4-[(1-Isopropyl-4,4-dimethyl-1,2,3,4-tetrahydroquinolin-6-yl)methylamino]benzoic Acid] | > 10
3 | CC(C)CCN(c1ccc(C(=O)O)cc1)c1ccc2c(c1)C(C)(C)CCN2C(C)C [Compound 14, 4-[(1-Isopropyl-4,4-dimethyl-1,2,3,4-tetrahydroquinolin-6-yl)(3-methylbutyl)amino]-benzoic Acid] | 7.7
4 | CC(C)N1CCC(C)(C)c2ccc(N(CC3CC3)c3ccc(C(=O)O)cc3)cc21 [Compound 40, 4-[(1-Isolpropyl-4,4-dimethyl-1,2,3,4-tetrahydroquinolin-7-yl)(cylopropylmethyl)amino]benzoic acid] | 24

Next, values leading:

Row | Ki [µM] | Compound
5 | 7.9 | CCN(c1ccc(C(=O)O)cc1)c1ccc2c(c1)C(C)(C)CCN2C(C)C [Compound 12, 4-[(1-Isopropyl-4,4-dimethyl-1,2,3,4-tetrahydroquinolin-6-yl)ethylamino]benzoic acid]
6 | > 10 | Cc1cc2c(cc1N(C)c1ccc(C(=O)O)cc1)C(C)(C)CCN2C(C)C [Compound 22, 4-[(1-Isopropyl-4,4,7-trimethyl-1,2,3,4-tetrahydroquinolin-6-yl)methylamino]benzoic acid]
7 | > 10 | CCN(c1ccc(C(=O)O)cc1)c1cc2c(cc1C)N(C(C)C)CCC2(C)C [Compound 24, 4-[(1-Isopropyl-4,4,7-trimethyl-1,2,3,4-tetrahydroquinolin-6-yl)ethylamino]benzoic acid]
8 | 11 | Cc1cc2c(cc1N(CC1CC1)c1ccc(C(=O)O)cc1)C(C)(C)CCN2C(C)C [Compound 26, 4-[(1-Isopropyl-4,4,7-trimethyl-1,2,3,4-tetrahydro-quinolin-6-yl)(cyclopropylmethyl)amino]benzoic acid]
9 | > 10 | CCN(c1ccc(C(=O)O)cc1)c1ccc2c(c1)N(C(C)C)CCC2(C)C [Compound 38, 4-[(1-Isopropyl-4,4-dimethyl-1,2,3,4-tetrahydroquinolin-7-yl)ethylamino]benzoic acid]
10 | > 10 | CC(C)CN(c1ccc(C(=O)O)cc1)c1ccc2c(c1)N(C(C)C)CCC2(C)C [Compound 39, 4-[(1-Isopropyl-4,4-dimethyl-1 2,3,4-tetrahydroquinolin-7-yl)isobutylamino]benzoic acid]
